Earlier results as cited in patent publication US20220202849A1, “PERK AS A TARGET FOR VIRUS THERAPEUTICS” (priority 2020, published 2022).
pIC50: −log10 of the molar value.

Test system: PERK
Conditions: as quoted with vendor catalog entry; read-out: PERK inhibitor IC50

For `O=C(COc1ccc(Cl)cc1)N[C@H]1CC[C@@H](NC(=O)COc2ccc(Cl)cc2)CC1` [ISRIB (trans-isomer), ISRIB], the pIC50 is given as roughly 8.30.
In the case of `Cc1cccc(CC(=O)N2CCc3c2ccc(-c2cn(C)c4ncnc(N)c24)c3F)n1` [GSK2656157], the pIC50 is listed as roughly 9.05.
